± gives the expanded uncertainty stated by the source.
Assays:
[1] = 101.33 kPa, Liquid
[2] = molar heat capacity at constant pressure; settings: 101.33 kPa, Liquid, Small sample (50 mg) DSC
[3] = excess molar enthalpy (molar enthalpy of mixing); xn = mol fraction of the nth substance listed; settings: 101.3 kPa, Liquid, Calvet calorimetry

| Structure (SMILES) | mass density ([1]; 293.15 K) [kg/m3] | mass density ([1]; 298.15 K) [kg/m3] | mass density ([1]; 303.15 K) [kg/m3] | mass density ([1]; 313.15 K) [kg/m3] | mass density ([1]; 323.15 K) [kg/m3] | mass density ([1]; 333.15 K) [kg/m3] | mass density ([1]; 343.15 K) [kg/m3] | molar heat capacity at constant pressure ([2]; 283.15 K) [J/K/mol] | molar heat capacity at constant pressure ([2]; 293.15 K) [J/K/mol] | molar heat capacity at constant pressure ([2]; 303.15 K) [J/K/mol] | molar heat capacity at constant pressure ([2]; 313.15 K) [J/K/mol] | molar heat capacity at constant pressure ([2]; 323.15 K) [J/K/mol] | molar heat capacity at constant pressure ([2]; 333.15 K) [J/K/mol] | molar heat capacity at constant pressure ([2]; 343.15 K) [J/K/mol] | other results |
| --- | --- | --- | --- | --- | --- | --- | --- | --- | --- | --- | --- | --- | --- | --- | --- |
| C[n+]1ccn(CCO)c1.O=C([O-])C(F)(F)F | 1370.39 ± 1.8 | 1366.36 ± 1.8 | 1362.51 ± 1.8 | 1354.8 ± 1.7 | 1346.98 ± 1.7 | 1339.46 ± 1.7 | 1331.98 ± 1.7 | 362 ± 29 | 367 ± 30 | 371 ± 30 | 376 ± 31 | 381 ± 31 | 387 ± 31 | 394 ± 32 |  |
| CCOP(=O)([O-])OCC.CCn1cc[n+](C)c1 [1-ethyl-3-methylimidazolium diethyl phosphate] | 1148.92 ± 0.98 | 1145.47 ± 0.97 | 1142.03 ± 0.96 | 1135.19 ± 0.94 | 1128.57 ± 0.91 | 1121.94 ± 0.89 | 1115.36 ± 0.86 | 517 ± 42 | 528 ± 43 | 533 ± 43 | 540 ± 44 | 545 ± 44 | 547 ± 44 | 557 ± 45 |  |
| CCOP(=O)([O-])OCC.CCn1cc[n+](C)c1 [1-ethyl-3-methylimidazolium diethyl phosphate] + O |  |  |  |  |  |  |  |  |  |  |  |  |  |  | excess molar enthalpy ([3]; 313.13 K, x2 = 0.2497): -0.813 ± 0.0335 kcal/mol; excess molar enthalpy ([3]; 313.13 K, x2 = 0.2506): -0.815 ± 0.0335 kcal/mol; excess molar enthalpy ([3]; 313.13 K, x2 = 0.5025): -1.34 ± 0.055 kcal/mol; excess molar enthalpy ([3]; 313.13 K, x2 = 0.5036): -1.34 ± 0.055 kcal/mol; excess molar enthalpy ([3]; 313.13 K, x2 = 0.7514): -1.25 ± 0.0502 kcal/mol; excess molar enthalpy ([3]; 313.13 K, x2 = 0.7538): -1.25 ± 0.0502 kcal/mol; excess molar enthalpy ([3]; 333.13 K, x2 = 0.2456): -0.786 ± 0.0311 kcal/mol; excess molar enthalpy ([3]; 333.13 K, x2 = 0.2473): -0.786 ± 0.0311 kcal/mol; excess molar enthalpy ([3]; 333.13 K, x2 = 0.4977): -1.31 ± 0.0526 kcal/mol; excess molar enthalpy ([3]; 333.13 K, x2 = 0.508): -1.32 ± 0.055 kcal/mol; excess molar enthalpy ([3]; 333.13 K, x2 = 0.7491): -1.23 ± 0.0502 kcal/mol; excess molar enthalpy ([3]; 333.13 K, x2 = 0.7512): -1.22 ± 0.0502 kcal/mol; excess molar enthalpy ([3]; 348.12 K, x2 = 0.2452): -0.779 ± 0.0311 kcal/mol; excess molar enthalpy ([3]; 348.12 K, x2 = 0.2477): -0.796 ± 0.0335 kcal/mol; excess molar enthalpy ([3]; 348.12 K, x2 = 0.4992): -1.29 ± 0.0526 kcal/mol; excess molar enthalpy ([3]; 348.12 K, x2 = 0.4996): -1.29 ± 0.0526 kcal/mol; excess molar enthalpy ([3]; 348.12 K, x2 = 0.7481): -1.19 ± 0.0478 kcal/mol; excess molar enthalpy ([3]; 348.12 K, x2 = 0.7485): -1.18 ± 0.0478 kcal/mol |
| CCn1cc[n+](C)c1.O=S(=O)([O-])O [1-ethyl-3-methylimidazolium hydrogen sulfate] | 1369.28 ± 2.9 | 1365.79 ± 2.9 | 1362.63 ± 2.9 | 1356.27 ± 2.9 | 1350.14 ± 2.8 | 1344.38 ± 2.8 | 1338.46 ± 2.8 | 290 ± 24 | 294 ± 24 | 297 ± 24 | 302 ± 25 | 306 ± 25 | 313 ± 25 | 324 ± 26 |  |
| CCn1cc[n+](C)c1.CS(=O)(=O)[O-] [1-ethyl-3-methylimidazolium methanesulfonate] | 1247.31 ± 1.3 | 1243.83 ± 1.3 | 1240.45 ± 1.3 | 1233.48 ± 1.3 | 1227.03 ± 1.3 | 1220.33 ± 1.2 | 1213.79 ± 1.2 | 327 ± 27 | 327 ± 27 | 330 ± 27 | 334 ± 27 | 339 ± 28 | 344 ± 28 | 350 ± 28 |  |
| CCn1cc[n+](C)c1.COS(=O)(=O)[O-] [1-ethyl-3-methylimidazolium methylsulfate] | 1291.15 ± 1.5 | 1287.75 ± 1.5 | 1284.37 ± 1.5 | 1277.61 ± 1.5 | 1270.87 ± 1.4 | 1264.22 ± 1.4 | 1257.72 ± 1.4 | 324 ± 26 | 330 ± 27 | 332 ± 27 | 337 ± 27 | 343 ± 28 | 347 ± 28 | 354 ± 29 |  |
